Laboratory results taken from PubChem BioAssay AID2060892 (Molecular Pharmacology Branch, DTP, NCI, 2025).

Tested on: HOP-62 complex spheroids with HUVEC/MSC, viability
Test: Anticancer human tumor HOP-62 cell line growth inhibition [RAS];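 also: spheroids exposed to agents for seven days before readout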;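 as to viability, T/C: 100% = DMSO vehicle control viability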
Settings: for IC50: curve of first compound; for viability, T/C: stronger effect = lower value
Summary of the method: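 Tumour cells grown as complex spheroids with HUVEC endothelial cells and mesenchymal stem cells, treated with RAS pathway inhibitor combinations. Each agent spans half-log steps from near clinical Cmax, or 10 microM where Cmax is unknown.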

[1] = second compound 0.000949 µM, first compound 0.0316 µM
[2] = second compound 0.000949 µM, first compound 0.1 µM
[3] = second compound 0.000949 µM, first compound 0.316 µM
[4] = second compound 0.000949 µM, first compound 1 µM
[5] = second compound 0.000949 µM, first compound 3.16 µM
[6] = second compound 0.000949 µM, first compound 10 µM
[7] = second compound 0.003 µM, first compound 0.0316 µM
[8] = second compound 0.003 µM, first compound 0.1 µM
[9] = second compound 0.003 µM, first compound 0.316 µM
[10] = second compound 0.003 µM, first compound 1 µM
[11] = second compound 0.003 µM, first compound 3.16 µM
[12] = second compound 0.003 µM, first compound 10 µM
[13] = second compound 0.00949 µM, first compound 0.0316 µM
[14] = second compound 0.00949 µM, first compound 0.1 µM
[15] = second compound 0.00949 µM, first compound 0.316 µM
[16] = second compound 0.00949 µM, first compound 1 µM
[17] = second compound 0.00949 µM, first compound 3.16 µM
[18] = second compound 0.00949 µM, first compound 10 µM
[19] = second compound 0.03 µM, first compound 0.0316 µM
[20] = second compound 0.03 µM, first compound 0.1 µM
[21] = second compound 0.03 µM, first compound 0.316 µM
[22] = second compound 0.03 µM, first compound 1 µM
[23] = second compound 0.03 µM, first compound 3.16 µM
[24] = second compound 0.03 µM, first compound 10 µM
[25] = second compound 0.0949 µM, first compound 0.0316 µM
[26] = second compound 0.0949 µM, first compound 0.1 µM
[27] = second compound 0.0949 µM, first compound 0.316 µM
[28] = second compound 0.0949 µM, first compound 1 µM
[29] = second compound 0.0949 µM, first compound 3.16 µM
[30] = second compound 0.0949 µM, first compound 10 µM
[31] = second compound 0.3 µM, first compound 0.0316 µM
[32] = second compound 0.3 µM, first compound 0.1 µM
[33] = second compound 0.3 µM, first compound 0.316 µM
[34] = second compound 0.3 µM, first compound 1 µM
[35] = second compound 0.3 µM, first compound 3.16 µM
[36] = second compound 0.3 µM, first compound 10 µM

CCC(CC)c1cc(NC2CCC(N)C2)n2nccc2n1 (stereo unspecified) + CCn1c(-c2cc(N3CCN(C)CC3)cnc2C(C)OC)c2c3cc(ccc31)-c1csc(n1)CC(NC(=O)C1CC1C)C(=O)N1CCCC(N1)C(=O)OCC(C)(C)C2
IC50 (second compound 0.000949 µM): 2040 nM
IC50 (second compound 0.003 µM): 1890 nM
IC50 (second compound 0.00949 µM): 1560 nM
IC50 (second compound 0.03 µM): 1270 nM
IC50 (second compound 0.0949 µM): 1020 nM
IC50 (second compound 0.3 µM): 31.6 nM
viability, T/C [1]: 116%
viability, T/C [2]: 125%
viability, T/C [3]: 94.3%
viability, T/C [4]: 128%
viability, T/C [5]: 9.48%
viability, T/C [6]: 1.8%
viability, T/C [7]: 91.4%
viability, T/C [8]: 99.2%
viability, T/C [9]: 91.5%
viability, T/C [10]: 121%
viability, T/C [11]: 8.75%
viability, T/C [12]: 1.01%
viability, T/C [13]: 74.9%
viability, T/C [14]: 63.3%
viability, T/C [15]: 80%
viability, T/C [16]: 93.5%
viability, T/C [17]: 5.73%
viability, T/C [18]: 0.77%
viability, T/C [19]: 54%
viability, T/C [20]: 56.3%
viability, T/C [21]: 57.9%
viability, T/C [22]: 81.2%
viability, T/C [23]: 2.62%
viability, T/C [24]: 0.93%
viability, T/C [25]: 40.1%
viability, T/C [26]: 49.5%
viability, T/C [27]: 52.8%
viability, T/C [28]: 61.5%
viability, T/C [29]: 2.26%
viability, T/C [30]: 2.34%
viability, T/C [31]: 33.1%
viability, T/C [32]: 43.1%
viability, T/C [33]: 47.9%
viability, T/C [34]: 50.8%
viability, T/C [35]: 6.58%
viability, T/C [36]: 1.42%

CC(C)NCC(C(=O)N1CCN(c2ncnc3c2C(C)CC3O)CC1)c1ccc(Cl)cc1 (stereo unspecified) + CCn1c(-c2cc(N3CCN(C)CC3)cnc2C(C)OC)c2c3cc(ccc31)-c1csc(n1)CC(NC(=O)C1CC1C)C(=O)N1CCCC(N1)C(=O)OCC(C)(C)C2
IC50 (second compound 0.000949 µM): 3880 nM
IC50 (second compound 0.003 µM): 2300 nM
IC50 (second compound 0.00949 µM): 587 nM
IC50 (second compound 0.03 µM): < 31.6 nM
IC50 (second compound 0.0949 µM): < 31.6 nM
IC50 (second compound 0.3 µM): < 31.6 nM
viability, T/C [1]: 121%
viability, T/C [2]: 119%
viability, T/C [3]: 80.8%
viability, T/C [4]: 88.9%
viability, T/C [5]: 60%
viability, T/C [6]: 19.1%
viability, T/C [7]: 100%
viability, T/C [8]: 95%
viability, T/C [9]: 71.2%
viability, T/C [10]: 71.3%
viability, T/C [11]: 44.1%
viability, T/C [12]: 17%
viability, T/C [13]: 74.7%
viability, T/C [14]: 56.9%
viability, T/C [15]: 58.5%
viability, T/C [16]: 48.6%
viability, T/C [17]: 21.5%
viability, T/C [18]: 12.3%
viability, T/C [19]: 46.9%
viability, T/C [20]: 46.3%
viability, T/C [21]: 38.3%
viability, T/C [22]: 31.7%
viability, T/C [23]: 14.8%
viability, T/C [24]: 15.3%
viability, T/C [25]: 34.7%
viability, T/C [26]: 40.6%
viability, T/C [27]: 30.4%
viability, T/C [28]: 30.9%
viability, T/C [29]: 15%
viability, T/C [30]: 13.9%
viability, T/C [31]: 34.2%
viability, T/C [32]: 38.6%
viability, T/C [33]: 29.6%
viability, T/C [34]: 22.4%
viability, T/C [35]: 19.2%
viability, T/C [36]: 14.5%

Cc1nc(N2CCC3(CC2)COC(C)C3N)c(CO)nc1Sc1ccnc(N)c1Cl (stereo unspecified) + C#Cc1c(F)ccc2cc(O)cc(-c3ncc4c(N5CC6CCC(C5)N6)nc(OCC56CCCN5CC(F)C6)nc4c3F)c12
IC50 (second compound 0.0316 µM): > 10000 nM
IC50 (second compound 0.1 µM): > 10000 nM
IC50 (second compound 0.316 µM): 3110 nM
IC50 (second compound 1 µM): 669 nM
IC50 (second compound 3.16 µM): 113 nM
IC50 (second compound 10 µM): < 31.6 nM
viability, T/C (second compound 0.0316 µM, first compound 0.0316 µM): 105%
viability, T/C (second compound 0.0316 µM, first compound 0.1 µM): 112%
viability, T/C (second compound 0.0316 µM, first compound 0.316 µM): 96.6%
viability, T/C (second compound 0.0316 µM, first compound 1 µM): 82.5%
viability, T/C (second compound 0.0316 µM, first compound 3.16 µM): 70.5%
viability, T/C (second compound 0.0316 µM, first compound 10 µM): 64.8%
viability, T/C (second compound 0.1 µM, first compound 0.0316 µM): 117%
viability, T/C (second compound 0.1 µM, first compound 0.1 µM): 97.7%
viability, T/C (second compound 0.1 µM, first compound 0.316 µM): 84.9%
viability, T/C (second compound 0.1 µM, first compound 1 µM): 79.1%
viability, T/C (second compound 0.1 µM, first compound 3.16 µM): 67.1%
viability, T/C (second compound 0.1 µM, first compound 10 µM): 48.5%
viability, T/C (second compound 0.316 µM, first compound 0.0316 µM): 108%
viability, T/C (second compound 0.316 µM, first compound 0.1 µM): 97.6%
viability, T/C (second compound 0.316 µM, first compound 0.316 µM): 82.4%
viability, T/C (second compound 0.316 µM, first compound 1 µM): 64.8%
viability, T/C (second compound 0.316 µM, first compound 3.16 µM): 51.1%
viability, T/C (second compound 0.316 µM, first compound 10 µM): 34.5%
viability, T/C (second compound 1 µM, first compound 0.0316 µM): 101%
viability, T/C (second compound 1 µM, first compound 0.1 µM): 79.5%
viability, T/C (second compound 1 µM, first compound 0.316 µM): 61.3%
viability, T/C (second compound 1 µM, first compound 1 µM): 46.6%
viability, T/C (second compound 1 µM, first compound 3.16 µM): 28.1%
viability, T/C (second compound 1 µM, first compound 10 µM): 25.6%
viability, T/C (second compound 3.16 µM, first compound 0.0316 µM): 64.3%
viability, T/C (second compound 3.16 µM, first compound 0.1 µM): 51.3%
viability, T/C (second compound 3.16 µM, first compound 0.316 µM): 38.1%
viability, T/C (second compound 3.16 µM, first compound 1 µM): 27.1%
viability, T/C (second compound 3.16 µM, first compound 3.16 µM): 16.8%
viability, T/C (second compound 3.16 µM, first compound 10 µM): 11.2%
viability, T/C (second compound 10 µM, first compound 0.0316 µM): 36.7%
viability, T/C (second compound 10 µM, first compound 0.1 µM): 32.4%
viability, T/C (second compound 10 µM, first compound 0.316 µM): 19.5%
viability, T/C (second compound 10 µM, first compound 1 µM): 10.1%
viability, T/C (second compound 10 µM, first compound 3.16 µM): 8.04%
viability, T/C (second compound 10 µM, first compound 10 µM): 8.15%
